According to patent US7943646B2, “Benzamidine derivative, process for the preparation thereof and pharmaceutical composition comprising same” (Dong Wha Pharmaceutical Co., Ltd., priority 2006, dated 2011):

Tests used:
[1] = tested on: MC3T3; test: Cytotoxicity test (MTT), MC3T3; type: cell-based; conditions: 10^−6M, 72 hrs, in comparison with the control group
Experimental: (§1) The cytotoxic effect of the benzamidine derivative of the present invention was evaluated by carrying out the experiment described below.
(§2) The test substance was diluted in an appropriate solvent at a 10^−2 M concentration. This substance was diluted in an appropriate culture medium for the cells used in the cytotoxicity test to a concentration of […], and loaded into a 96-well plate in 100 μl per well. The cell lines to be used in the cytotoxicity test were plated on a 96-well plate in a dose of 1.0×10^4 cells/1OO μl per well and cultured for 72 hrs. 25 μl of MTT [3-(4,5-dimethyl-2-thiazolyl)-2,5-diphenyl-2H-tetrazolium bromide] dissolved in PBS (2 mg/mL) were added before 4 hrs of the end of culture. After completion of the reaction, the plates were centrifuged, the medium was discarded and 100 μl of DMSO was added to dissolve formazan. Finally, the absorbance of the developed plates was measured at 540 nm. The survival rates of the cells were expressed as % concentration values in comparison with the control group.

[2] = tested on: osteoclast differentiation; test: Inhibitory effect on osteoclast differentiation, co-culture of bone marrow cells and osteoblast, TRAP staining; type: cell-based, mouse; conditions: 1 μm, 7 days co-culture, TRAP-positive osteoclasts with 3 or more nuclei, relative to negative controls; for inhibition at 1 µM: Mus musculus, Osteoclast, 168 h, read-out: inhibitory effect on osteoclast differentiation(%)
Experimental: The effect of the benzamidine derivative of the present invention on osteoclast formation and differentiation process was evaluated via co-culture with an osteoblast.
Tibia was aseptically ectomized from male 6 to 8-week-old ddY mice to harvest bone marrow cells by using a syringe (21G, Korea Green Cross). The bone marrow cells were suspended in 5 mL of an α-MEM medium (Gibco BRL Co., added with sodium bicarbonate (2.0 g/L), streptomycin (100 mg/L) and penicillin ([…]), filtered and then sterilized). The harvested cells were centrifuged at 600×g for 5 mins to collect the whole quantity. To remove the red blood cells in the bone marrow cells, 3 mL of Tris HCl (0.83% NH4Cl, pH 7.5) was added and well mixed. After centrifuging above cells, the numbers of the eukaryotic cells in the harvested bone marrow cells were counted and then immediately used for a co-culture system.
The progenitor bone and the parietal bone were aseptically ectomized from 1 to 2-day-old neonate ICR mice, washed with a phosphate butter solution (PBS) and treated with a mixed enzyme solution (of 0.2% collagenase and 0.1% dispase) sequentially (10, 10, 10, 20, 20 and 20 min), and then 3 to 6 groups of the cells which comprise lot of cells having the characteristics of the osteoblast were intensively collected and washed with a medium (a serum-free α-MEM). The washed cells were cultured in the α-MEM medium containing 10% FBS for 2 to 3 days. After subculturing, the collected cells were used for this experiment, and diluted to a concentration of 1×10^6 cells/mL for storage at −70[…].
The benzamidine derivative of the present invention was dissolved in a sterile distilled water or ethanol to dilute to a desired concentration. The final volume of the sample added to the cell culture medium was set at a ratio of 1:1000.
The bone marrow cells prepared in the above 1-1 and the osteoblast were co-cultured for osteoclast differentiation. Both the bone marrow cells (25,000 cells/cm^2) and the osteoblast (10,000 cells/cm^2) were plated in a 96-well plate using α-MEM medium containing FBS, and then cultured with the samples to be tested for 7 days. Differentiation factors, such as dexamethasone (10^−7 M) and vitamin D3 (10^−8 M), were also co-added to the medium from the first day of cultivation. The medium was changed with a fresh media containing a mixture of the samples and the differentiation factors every 2 to 3 days.
TRAP was used as a marker to measure the matured osteoclast in consideration of its characteristics showing a positive reaction to a TRAP staining solution. The TRAP staining solution was prepared in such the manner that 5 mg of naphtol AS-MS phosphate (sigma N-4875) as a substrate, and 25 mg of a coloring agent (Fast Red Violet LB salt) were dissolved in N,N-dimethylformamide (about 0.5 mL). 50 ml of a 0.1 N NaHCO3 buffer solution containing 50 mM tartaric acid (pH 5.0) was added thereto, and the mixture was stored at a refrigerator prior to use as a staining solution.
After culturing the cells for 7 days, the medium was removed from the wells, the cells were once washed with PBS, and then fixed with PBS containing 10% formalin for 2 to 5 min. The cells were fixed again in a mixed solution of ethanol and acetone (1/1) for about 1 min, and dried off. The cells were further treated by the TRAP staining solution for 15 mins and washed with water and dried off. The osteoclasts with 3 or more nuclei showing a TRAP-positive reaction were counted under a microscopic examination. Each of tests was confirmed over at least three times. The inhibitory effect on osteoclast differentiation of each experimental group, relative to negative controls, was expressed as a percentage (%).

[3] = tested on: HOS; test: Cytotoxicity test (MTT), HOS; type: cell-based; conditions: 10^−6M, 72 hrs, in comparison with the control group
Experimental: as §1, §2

[4] = tested on: calvaria; test: Cytotoxicity test (MTT), calvaria; type: cell-based; conditions: 10^−6M, 72 hrs, in comparison with the control group
Experimental: as §1, §2

Compound | survival rates of the cells [1] | inhibition at 1 µM [2] | survival rates of the cells [3] | survival rates of the cells [4] | inhibitory effect on osteoclast differentiation(%) [2]
CN(C)CCc1sc(C2CCCCC2)nc1-c1ccc(OCCCCCOc2ccc(C(=N)NO)cc2)cc1 [Example 37, N-hydroxy-4-(5-{4-[2-cyclohexyl-5-(2-dimethylamino-ethyl)-thiazol-4-yl]-phenoxy}-pentyloxy)-benzamidine] | 94.9% | 100% | 116.7% | 84.7% | 
CCCN(CCC)CCc1sc(C2CCCCC2)nc1-c1ccc(OCCCCCOc2ccc(C(=N)NO)cc2)cc1 [Example 38, N-hydroxy-4-(5-{4-[2-cyclohexyl-5-(2-dipropylamino-ethyl)-thiazol-4-yl]-phenoxy}-pentyloxy)-benzamidine] | 104.7% | 100% | 96.2% | 94.9% | 
N=C(NO)c1ccc(OCCCCCOc2ccc(-c3nc(C4CCCCC4)sc3CCNC3CC3)cc2)cc1 [Example 39, N-hydroxy-4-(5-{4-[2-cyclohexyl-5-(2-cyclopropylamino-ethyl)-thiazol-4-yl]-phenoxy}-pentyloxy)-benzamidine] | 85.0% | 100% | 111.0% | 93.1% | 
N=C(NO)c1ccc(OCCCCCOc2ccc(-c3nc(N)sc3CCNCCN3CCOCC3)cc2)cc1 [Example 40, N-hydroxy-4-[5-(4-{2-amino-5-[2-(2-morpholin-4-yl-ethylamino)-ethyl]-thiazol-4-yl}-phenoxy)-pentyloxy]-benzamidine] | 102.2% | 24.6% | 103.2% | 99.7% | 
N=C(NO)c1ccc(OCCCCCOc2ccc(-c3nc(-c4ccccc4)sc3CCN3CCOCC3)cc2)cc1 [Example 41, N-hydroxy-4-(5-{4-[5-(2-morpholin-4-yl-ethyl)-2-phenyl-thiazol-4-yl]-phenoxy}-pentloxy)-benzamidine] | 85.9% |  | 78.8% | 78.6% | 100%
CCc1nc(-c2ccc(OCCCCCOc3ccc(C(=N)NO)cc3)cc2)c(CCN2CCOCC2)s1 [Example 42, N-hydroxy-4-(5-{4-[2-ethyl-5-(2-morpholin-4-yl-ethyl)-thiazol-4-yl]-phenoxy}-pentyloxy)-benzamidine] | 81.5% | 100% | 98.9% | 73.8% | 
CCc1nc(-c2ccc(OCCCCCOc3ccc(C(=N)NO)cc3)cc2)c(CCN2CCSCC2)s1 [Example 43, N-hydroxy-4-(5-{4-[2-ethyl-5-(2-thiomorpholin-4-yl-ethyl)-thiazol-4-yl]-phenoxy}-pentyloxy)-benzamidine] | 86.5% | 97.7% | 80.4% | 91.9% | 
Cc1nc(-c2ccc(OCCCCCOc3ccc(C(=N)N)cc3)cc2)c(CCN2CCOCC2)s1 [Example 46, 4-(5-{4-[2-methyl-5-(2-morpholin-4-yl-ethyl)-thiazol-4-yl]-phenoxy}-pentyloxy)-benzamidine] | 95.3% | 63.4% | 94.1% | 99.9% | 
CNc1nc(-c2ccc(OCCCCCOc3ccc(C(=N)NO)cc3)cc2)c(CCNCCN2CCOCC2)s1 [Example 50, N-hydroxy-4-[5-(4-{2-methylamino-5-[2-(2-morpholin-4-yl-ethylamino)-ethyl]-thiazol-4-yl}-phenoxy)-pentyloxy]-benzamidine] | 97.2% | 37% | 93.6% | 92.8% | 
CNc1nc(-c2ccc(OCCCCCOc3ccc(C(=N)NO)cc3)cc2)c(CCNCCCn2ccnc2)s1 [Example 51, N-hydroxy-4-[5-(4-{5-[2-(3-imidazol-1-yl-propylamino)-ethyl]-2-methylamino-thiazol-4-yl}-phenoxy)-pentyloxy]-benzamidine] | 93.8% | 32% | 99.6% | 91.7% | 
N=C(NO)c1ccc(OCCCCCOc2ccc(-c3nc(N(CCN4CCOCC4)Cc4ccccc4)sc3CCN3CCOCC3)cc2)cc1 [Example 56, N-hydroxy-4-(5-{4-[2-[benzyl-(2-morpholin-4-yl-ethyl)-amino]-5-(2-morpholin-4-yl-ethyl)-thiazol-4-yl]-phenoxy}-pentyloxy)-benzamidine] | 86.0% | 100% | 98.8% | 84.0% | 
CCN(CC)c1nc(-c2ccc(OCCCCCOc3ccc(C(=N)NO)cc3)cc2)c(CCN2CCOCC2)s1 [Example 57, N-hydroxy-4-(5-{4-[2-diethylamino-5-(2-morpholin-4-yl-ethyl)-thiazol-4-yl]-phenoxy}-pentyloxy)-benzamidine] | 86.8% | 100% | 90.7% | 87.0% | 
COCCN(CCOC)c1nc(-c2ccc(OCCCCCOc3ccc(C(=N)NO)cc3)cc2)c(CCN2CCOCC2)s1 [Example 58, N-hydroxy-4-(5-{4-[2-[bis-(2-methoxy-ethyl)-amino]-5-(2-morpholin-4-yl-ethyl)-thiazol-4-yl]-phenoxy}-pentyloxy)-benzamidine] | 79.2% | 100% | 85.4% | 76.8% | 
N=C(NO)c1ccc(OCCCCCOc2ccc(-c3nc(N4CCOCC4)sc3CCNCCN3CCOCC3)cc2)cc1 [Example 62, N-hydroxy-4-[5-(4-{2-morpholin-4-yl-5-[2-(2-morpholin-4-yl-ethylamino)-ethyl]-thiazol-4-yl}-phenoxy)-pentyloxy]-benzamidine] | 97.0% | 43.6% | 95.1% | 92.7% | 
N=C(NO)c1ccc(OCCCCCOc2ccc(-c3nc(CN4CCCCC4)sc3CCN3CCOCC3)cc2)cc1 [Example 63, N-hydroxy-4-(5-{4-[5-(2-morpholin-4-yl-ethyl)-2-piperidin-1-yl-methyl-thiazol-4-yl]-phenoxy}-pentyloxy)-benzamidine] | 89.4% | 99.2% | 86.5% | 86.9% | 
